{"source": "patent US5288723A", "about": "“A composition and a method of using veratridine and epinephrine as a local anesthetic” (priority 1991, dated 1994)", "key": {"[1]": {"tested_on": "C-fibers of rabbit vagus nerve", "test": "Sucrose-gap recording in the veratrinized region, C-fibers", "parameters": "species or system New Zealand white rabbit", "experimental": "(§1) Adult male New Zealand white rabbits (3±0.5 kg) were pretreated intramuscularly with a mixture of ketamine (200 mg), xylazine (20 mg) and atropine (0.4 mg) for sedation. Ten minutes after this treatment, the animals were anesthetized with diethyl ether. After cessation of respiration, a longitudinal skin incision was made, and the cervical portion of both vagus nerves was dissected. The vagus nerves were temporarily stored at room temperature (22° C.) in a beaker containing modified HEPES Liley (HL) solution stirred constantly by aeration with a mixture of 95% oxygen and 5% carbon dioxide.\nThe modified HL solution used for bathing the nerve and subsequent drug perfusion consisted of (in mM): NaCl, 118.0; KCl, 5.0; CaCl2 2H2 0, 2.0; MgCl2 6H2 0, 1.0; α-D(+)-glucose, 11.0; NaHC03, 25.0; and N-2-hydroxy-ethylpiperazine-N-2-ethanesulfonic acid (HEPES) buffer, 5.0 mM. The pH was adjusted to 7.4±0.05 by addition of 1 N NaOH. The perfusion solution was bubbled with a gas mixture of 95% oxygen and 5% carbon dioxide at a vigorous rate just before flowing onto the nerve. The pH was stabilized by the HEPES buffer and maintained at 7.4.\nVTD free base (no. V-5754, lot 58F-7828, Sigma, St. Louis, Mo.) was stored in a desiccator below 0° C. and was used to prepare a 2 mM stock solution in dimethyl sulfoxide [DMSO], Fisher Scientific, lot 861316), which also was stored at below 0° C. VTD, a steroidal alkaloid (FIG. 2A) that is produced by certain lilies, has a solubility limited to approximately 10^-3 M in aqueous slat solutions [Kupchan and By, \"The Veratrum Group,\" in Alkaloids, Vol. 10, Manske, R.H.F. (ed.), New York, Academic Press (1968), pp. 193-285]. The stock VTD solution was diluted to final concentrations of 0.2-10 μM by the addition of HL. The maximum equivalent content of DMSO is 0.5%, and in three control experiments we detected no change in electrophysiologic behavior with 1% DMSO.\nNerves were desheathed and mounted in an acrylic sucrose-gap chamber (FIG. 2C). We used a method after that described by Stampfli [Stampfli, R., Experientia 10:508-509 (1954); see also Rando et al., Mol. Pharmacol. 29:467-477 (1986)]. […] In contrast to the extracellular chamber described above, which measured APc in a drug-free segment after they had propagated through a VTD solution, the sucrose gap measured the behavior of the nerve membrane directly exposed to drug, the \"veratrinized\" nerve.\nAPc and the CRP were recorded with the same amplifier used for extracellular recording (see above), but passed both to the DC-coupled input of the storage oscilloscope (for APc) and to a strip-chart recorder (for CRP) (model 8376-20, Cole-Palmer). […]"}, "[2]": {"tested_on": "Na^+ channel of the mammalian brain", "settings": "purified polypeptides in phospholipid vesicles; cited from earlier work"}, "rat sciatic nerve [3]": {"tested_on": "rat sciatic nerve", "test": "Motor block of rat sciatic nerve in vivo (toe curling and/or foot dragging)", "parameters": "species or system Male Sprague-Dawley rats"}, "[4]": {"settings": "aqueous slat solutions; limited to approximately; cited from earlier work"}, "rat sciatic nerve [5]": {"tested_on": "rat sciatic nerve", "test": "Motor block of rat sciatic nerve in vivo (toe curling and/or foot dragging)", "parameters": "species or system Male Sprague-Dawley rats", "settings": "for duration, MOTOR / onset, MOTOR: mean ± SEM", "experimental": "Male Sprague-Dawley rats (200-250 g) were divided into 4 groups of 10 each. 0.1 ml of VTD alone at 0.2, 0.5 or 0.7 mM or vehicle (saline) was injected at the depression between the femoral head and the hip. The same animals were injected with VTD with epinephrine (EPI, 1:200,000) one week later, using the previously uninjected leg. Motor and sensory functions were rated by the respective monitoring of toe curling and/or foot dragging, and by testing the nocifensive withdrawal reflex to pinch of the foot pad of the injected hindlimb. Saline alone affected neither function."}, "[6]": {"tested_on": "B-fibers of rabbit vagus nerve", "test": "Sucrose-gap recording in the veratrinized region, B-fibers", "parameters": "species or system New Zealand white rabbit", "settings": "0.5 μm VTD", "experimental": "as §1, with “dioxide. […]” for “dioxide.”\n(§2) VTD free base (no. V-5754, lot 58F-7828, Sigma, St. Louis, Mo.) was stored in a desiccator below 0° C. and was used to prepare a 2 mM stock solution in dimethyl sulfoxide [DMSO], Fisher Scientific, lot 861316), which also was stored at below 0° C. […] The maximum equivalent content of DMSO is 0.5%, and in three control experiments we detected no change in electrophysiologic behavior with 1% DMSO.\n(§3) Nerves were desheathed and mounted in an acrylic sucrose-gap chamber (FIG. 2C). […] In contrast to the extracellular chamber described above, which measured APc in a drug-free segment after they had propagated through a VTD solution, the sucrose gap measured the behavior of the nerve membrane directly exposed to drug, the \"veratrinized\" nerve. […]"}, "[7]": {"tested_on": "A-fibers of rabbit vagus nerve", "test": "Sucrose-gap recording in the veratrinized region, A-fibers", "parameters": "species or system New Zealand white rabbit", "experimental": "as §1, with “dioxide. […]” for “dioxide.”\nas §2, §3"}}, "note": "Entries after “also recorded” stand apart in the source; their conditions may differ."}
{"smiles": "COc1ccc(C(=O)OC2CCC3(C)C4CCC5C6(O)CC(O)C7(O)C(CN8CC(C)CCC8C7(C)O)C6(O)CC53OC24O)cc1OC", "note": "(stereo not shown) [VTD, veratridine]", "values": [{"measurement": "C-fiber elevation after addition of VTD", "setting": "[1]; 0.5 μm VTD, single stimulus", "result": "unaffected"}, {"measurement": "Time for development of VTD-induced depolarization (VID) after stimulation", "setting": "[1]; 0.5 μm VTD, within about 100 ms", "result": "≤ 100", "unit": "ms"}, {"measurement": "Decay halftime of VTD-induced depolarization (VID)", "setting": "[1]; after 1 hr in 2.0 μm VTD", "result": "3 to 4", "unit": "s"}, {"measurement": "Primary C-fiber elevations during cumulative VID", "setting": "[1]; repetitive stimulation", "result": "much smaller than were the elevations induced by single stimuli; also recorded: selectively reduced"}, {"measurement": "Sodium flux into vesicles in response", "setting": "[2]", "result": "sodium flux into these vesicles occurs"}, {"measurement": "Duration of motor block (summary)", "setting": "rat sciatic nerve [3]; VTD alone, 0.2-0.7 mM, approximately", "result": "100 to 300", "unit": "min"}, {"measurement": "fraction block, MOTOR", "setting": "rat sciatic nerve [3]; [VTD] 0.2 mM, 0.1 ml", "result": "8/10"}, {"measurement": "onset, MOTOR", "setting": "rat sciatic nerve [3]; [VTD] 0.2 mM, 0.1 ml, mean ± SEM", "result": "13 ± 2", "unit": "min"}, {"measurement": "fraction block, MOTOR", "setting": "rat sciatic nerve [3]; [VTD] 0.7 mM, 0.1 ml", "result": "5/10"}, {"measurement": "Duration of nerve block compared with bupivacaine and lidocaine", "setting": "rat sciatic nerve [3]; rat sciatic nerve", "result": "longer duration than both"}, {"measurement": "Solubility", "setting": "[4]", "result": "approximately 10^-3 M"}, {"measurement": "Onset of motor block (summary)", "setting": "rat sciatic nerve [5]; VTD alone, 0.2-0.7 mM", "result": "6 to 12", "unit": "min"}, {"measurement": "duration, MOTOR", "setting": "rat sciatic nerve [5]; [VTD] 0.2 mM, 0.1 ml", "result": "124 ± 19", "unit": "min"}, {"measurement": "fraction block, MOTOR", "setting": "rat sciatic nerve [5]; [VTD] 0.5 mM, 0.1 ml", "result": "10/10"}, {"measurement": "duration, MOTOR", "setting": "rat sciatic nerve [5]; [VTD] 0.5 mM, 0.1 ml", "result": "211 ± 31", "unit": "min"}, {"measurement": "onset, MOTOR", "setting": "rat sciatic nerve [5]; [VTD] 0.5 mM, 0.1 ml", "result": "10 ± 3", "unit": "min"}, {"measurement": "duration, MOTOR", "setting": "rat sciatic nerve [5]; [VTD] 0.7 mM, 0.1 ml", "result": "285 ± 39", "unit": "min"}, {"measurement": "onset, MOTOR", "setting": "rat sciatic nerve [5]; [VTD] 0.7 mM, 0.1 ml", "result": "6 ± 2", "unit": "min"}, {"measurement": "Motor function inhibition compared with bupivacaine and lidocaine", "setting": "rat sciatic nerve [5]; rat sciatic nerve", "result": "more potent and longer acting inhibitor of motor function than either bupivacaine or lidocaine; also recorded: more potent and longer-acting inhibitor of motor function than either bupivacaine or lidocaine"}, {"measurement": "B-fiber elevation after addition of VTD", "setting": "[6]", "result": "unchanged"}, {"measurement": "A-fiber deflection between beginning and end of the train", "setting": "[7]; 0.2 μM VTD, 0.5 Hz stimulation", "result": "unchanged"}, {"measurement": "A-fiber elevation after addition of VTD", "setting": "[7]; 0.5 μm VTD", "result": "unchanged"}]}
